According to ChEMBL document CHEMBL4350978, “Phytochemical and pharmacological attributes of piperine: A bioactive ingredient of black pepper” (2019):
In brackets after ≈: the same amount, converted by molar mass. Each block holds one compound with its values, some of them ahead of it.

What was measured:
Format in all cases: functional
[1] = system: Escherichia coli; assay: Antibacterial activity against Escherichia coli assessed as diameter of zone of inhibition at 15 ug/disc by disc diffusion method; conditions: read-out: DIZ
[2] = system: Staphylococcus aureus; assay: Antibacterial activity against Staphylococcus aureus assessed as diameter of zone of inhibition at 15 ug/disc by disc diffusion method; conditions: read-out: DIZ
[3] = system: Klebsiella pneumoniae; assay: Antibacterial activity against Klebsiella pneumoniae assessed as diameter of zone of inhibition at 15 ug/disc by disc diffusion method; conditions: read-out: DIZ
[4] = system: Proteus vulgaris; assay: Antibacterial activity against Proteus vulgaris assessed as diameter of zone of inhibition at 15 ug/disc by disc diffusion method; conditions: read-out: DIZ
[5] = system: Pseudomonas aeruginosa; assay: Antibacterial activity against Pseudomonas aeruginosa assessed as diameter of zone of inhibition at 15 ug/disc by disc diffusion method; conditions: read-out: DIZ
[6] = system: Escherichia coli; assay: Antibacterial activity against Escherichia coli assessed as diameter of zone of inhibition at 10 ug/disc by disc diffusion method; conditions: read-out: DIZ
[7] = system: Staphylococcus aureus; assay: Antibacterial activity against Staphylococcus aureus assessed as diameter of zone of inhibition at 10 ug/disc by disc diffusion method; conditions: read-out: DIZ
[8] = system: Klebsiella pneumoniae; assay: Antibacterial activity against Klebsiella pneumoniae assessed as diameter of zone of inhibition at 10 ug/disc by disc diffusion method; conditions: read-out: DIZ
[9] = system: Proteus vulgaris; assay: Antibacterial activity against Proteus vulgaris assessed as diameter of zone of inhibition at 10 ug/disc by disc diffusion method; conditions: read-out: DIZ
[10] = system: Pseudomonas aeruginosa; assay: Antibacterial activity against Pseudomonas aeruginosa assessed as diameter of zone of inhibition at 10 ug/disc by disc diffusion method; conditions: read-out: DIZ
[11] = system: Escherichia coli; assay: Antibacterial activity against Escherichia coli assessed as diameter of zone of inhibition at […] by disc diffusion method
[12] = system: Staphylococcus aureus; assay: Antibacterial activity against Staphylococcus aureus assessed as diameter of zone of inhibition at […] by disc diffusion method
[13] = system: Klebsiella pneumoniae; assay: Antibacterial activity against Klebsiella pneumoniae assessed as diameter of zone of inhibition at […] by disc diffusion method
[14] = system: Proteus vulgaris; assay: Antibacterial activity against Proteus vulgaris assessed as diameter of zone of inhibition at […] by disc diffusion method
[15] = system: Pseudomonas aeruginosa; assay: Antibacterial activity against Pseudomonas aeruginosa assessed as diameter of zone of inhibition at […] by disc diffusion method
[16] = system: Candida albicans; assay: Antifungal activity against Candida albicans assessed as diameter of zone of inhibition at […] by disc diffusion method
[17] = system: Escherichia coli; assay: Antibacterial activity against Escherichia coli by serial dilution method
[18] = system: Staphylococcus aureus; assay: Antibacterial activity against Staphylococcus aureus by serial dilution method
[19] = system: Klebsiella pneumoniae; assay: Antibacterial activity against Klebsiella pneumoniae by serial dilution method
[20] = system: Proteus vulgaris; assay: Antibacterial activity against Proteus vulgaris by serial dilution method
[21] = system: Candida albicans; assay: Antifungal activity against Candida albicans by serial dilution method

SMILES: CC[C@H]1OC(=O)[C@H](C)[C@@H](O[C@H]2C[C@@](C)(OC)[C@@H](O)[C@H](C)O2)[C@H](C)[C@@H](O[C@@H]2O[C@H](C)C[C@H](N(C)C)[C@H]2O)[C@](C)(O)C[C@@H](C)C(=O)[C@H](C)[C@@H](O)[C@]1(C)O [ERYTHROMYCIN]
- zone of inhibition at 15 µg/disc [1]: 15 mm
- zone of inhibition at 15 µg/disc [2]: 24 mm
- zone of inhibition at 15 µg/disc [3]: 10 mm
- zone of inhibition at 15 µg/disc [4]: 6 mm
- zone of inhibition at 15 µg/disc [5]: 18 mm

SMILES: CN[C@@H]1[C@H](O[C@H]2[C@H](O[C@H]3[C@H](O)[C@@H](O)[C@H](N=C(N)N)[C@@H](O)[C@@H]3N=C(N)N)O[C@@H](C)[C@]2(O)C=O)O[C@@H](CO)[C@H](O)[C@H]1O [STREPTOMYCIN]
- zone of inhibition at 10 µg/disc [6]: 13.5 mm
- zone of inhibition at 10 µg/disc [7]: 23 mm
- zone of inhibition at 10 µg/disc [8]: 20 mm
- zone of inhibition at 10 µg/disc [9]: 10 mm
- zone of inhibition at 10 µg/disc [10]: 22 mm

- MIC [17]: 6.25 mg/mL (≈ 21.9 mM)
- MIC [18]: 50 mg/mL (≈ 175 mM)
- MIC [19]: 25 mg/mL (≈ 87.6 mM)
- MIC [20]: 12.5 mg/mL (≈ 43.8 mM)
- MIC [21]: 3.12 mg/mL (≈ 11 mM)
SMILES: O=C(/C=C/C=C/c1ccc2c(c1)OCO2)N1CCCCC1 [PIPERINE]
- diameter of the inhibition zone (DIZ) [11]: 20 mm
- diameter of the inhibition zone (DIZ) [12]: 12 mm
- diameter of the inhibition zone (DIZ) [13]: 15 mm
- diameter of the inhibition zone (DIZ) [14]: 17 mm
- diameter of the inhibition zone (DIZ) [15]: 8 mm
- diameter of the inhibition zone (DIZ) [16]: 23 mm
